Assay results: ChEMBL document CHEMBL1240370, “Effects of immunomodulatory and organism-associated molecules on the permeability of an in vitro blood-brain barrier model to amphotericin B and fluconazole” (Antimicrob Agents Chemother, 2010)

Tests used:
Format in all cases: ADME, cell-based, Bos taurus
Details in all cases: cattle, c6, 24 h
[1] = Permeability across BBMEC cocultured with rat C6 cell BBB model after 24 hrs in presence of 0.1 ug/ml tacrolimus-506
[2] = Permeability across BBMEC cocultured with rat C6 cell BBB model after 24 hrs in presence of 0.1 ug/ml lipopolysaccharide
[3] = Permeability across BBMEC cocultured with rat C6 cell BBB model after 24 hrs in presence of 1 ug/ml Dexamethasone
[4] = Permeability across BBMEC cocultured with rat C6 cell BBB model after 24 hrs in presence of 1 ug/ml lipopolysaccharide
[5] = Permeability across BBMEC cocultured with rat C6 cell BBB model after 24 hrs in presence of 0.1 ug/ml lipoteichoic acid
[6] = Permeability across BBMEC cocultured with rat C6 cell BBB model after 24 hrs in presence of 0.01 ug/ml tacrolimus-506
[7] = Permeability across BBMEC cocultured with rat C6 cell BBB model after 24 hrs in presence of 0.1 ug/ml interleukin-2
[8] = Permeability across BBMEC cocultured with rat C6 cell BBB model after 24 hrs in presence of 0.01 ug/ml TNF
[9] = Permeability across BBMEC co-cultured with rat C6 cell BBB model after 24 hrs in presence of 0.01 ug/ml interleukin-1
[10] = Permeability across BBMEC cocultured with rat C6 cell BBB model after 24 hrs in presence of 0.1 ug/ml Dexamethasone
[11] = Permeability across BBMEC cocultured with rat C6 cell BBB model after 24 hrs in presence of 0.1 ug/ml TNF

Measured: permeability

OC(Cn1cncn1)(Cn1cncn1)c1ccc(F)cc1F [FLUCONAZOLE]
permeable: all assays above
